Reference: patent US20250049785A1, “METHODS FOR THE TREATMENT OF GLIOBLASTOMA THAT MINIMIZE RADIATION DAMAGE IN SUSCEPTIBLE PATIENTS” (Rhode Island Hospital, priority 2021, published 2025)

What was measured:
[1] = test system: IDH-1 wild-type glioblastoma; experiment: Case presentation: elderly glioblastoma patient treated with involved-field radiotherapy and concomitant daily TMZ; type: in vivo, human
Source text: A right-handed person had developed confusion, word-finding difficulty and slurred speech. These symptoms included making phone calls to their spouse and asking their non-sensible questions. They lost their words intermittently and forgot names of their family members on a number of occasions. They recounted old stories as if they were perseverating and answered questions in the affirmative without actually hearing the question. Their mood also became more irritable. Their past medical history was notable for a skull fracture after fall from horseback riding when they were a teenager. The patient had undergone a neurocognitive evaluation from a memory disorder clinic in a major academic medical center and they had been diagnosed with a non-specific memory disorder.
The patient underwent a gross total resection of the mass 4 days after the MRI. […] Immunohistochemical staining was negative for IDH-1 R132H mutation but positive for ATRX, GFAP, Olig-2 and p53.
The radiation administered consisted of standard external beam radiotherapy. The left temporal postsurgical cavity as well as the ipsilateral putamen and globus pallidus were included in the maximum 6,000 cGy isodose line (see FIG. 2). The brainstem was covered in the 3,000 cGy isodose line while the contralateral putamen and globus pallidus received up to 1,800 cGy of radiation.
They became more forgetful and developed imbalance. […]

[2] = bilateral hippocampal sparing whole brain radiation with memantine; cited from earlier work

SMILES	cognitive status after treatment ([1]; after radiation (up to 6,000 cGy) and TMZ, patient with diffuse Lewy body disease at autopsy)	haematological toxicity limiting chemotherapy ([1]; person, concomitant daily TMZ with involved-field radiotherapy, only two weeks of chemotherapy administered)	neurocognitive function versus traditional fractionated whole brain radiotherapy [2]
Cn1nnc2c(C(N)=O)ncn2c1=O [TMZ, temozolomide]	rapidly deteriorated	low blood counts	–
CC12CC3CC(C)(C1)CC(N)(C3)C2 [memantine]	–	–	preserves neurocognitive function better
